Experiment [1] addresses T1, RET(KD: 658-1114 G810R) (Homo sapiens, UniProt P07949, G810R).
T1 construct: 658-1114; expressed in transfected cells; host or cells: 293T.165 (293T cells, generated in-house)
T1 sequence (P07949 658-1114 G810R): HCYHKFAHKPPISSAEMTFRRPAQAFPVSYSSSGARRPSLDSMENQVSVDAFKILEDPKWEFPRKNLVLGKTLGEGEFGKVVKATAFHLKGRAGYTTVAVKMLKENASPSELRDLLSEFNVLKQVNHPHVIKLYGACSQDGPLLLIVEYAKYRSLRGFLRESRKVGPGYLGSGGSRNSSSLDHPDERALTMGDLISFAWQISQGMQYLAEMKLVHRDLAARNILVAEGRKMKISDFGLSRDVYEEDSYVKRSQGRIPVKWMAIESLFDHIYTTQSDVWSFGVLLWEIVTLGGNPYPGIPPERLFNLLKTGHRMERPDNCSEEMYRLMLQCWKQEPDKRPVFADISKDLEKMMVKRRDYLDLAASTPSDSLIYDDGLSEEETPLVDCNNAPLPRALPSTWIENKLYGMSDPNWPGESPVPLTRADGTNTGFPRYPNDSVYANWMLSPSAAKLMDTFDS
Kind of experiment: HiBiT-Degradation, RET G810R degradation assay (Nano-Glo HiBiT Lytic), 293T.165 cells. It counts as cell-based. The following applies: for Emax / DC50: 6.0 hours. The method in brief: (§1)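 Luminescence readout of HiBiT-tagged RET kinase domain remaining after 6 h compound exposure. Cells: 293T.144 (wild type) or 293T.165 (G810R), 11 half-log doses up to 10 μM, duplicates. DC50 and Emax as % remaining protein taken from curve fits.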
For orientation: The HiBiT peptide binds its large partner to form an active luciferase.

For experiment [2], the target named is T2, RET (658-1114) (Homo sapiens, UniProt P07949).
T2 construct: 658-1114; expressed in transfected cells; host or cells: 293T.144 (293T cells, generated in-house)
T2 sequence (P07949 658-1114): T1 sequence (P07949 658-1114 G810R) with R153G
Put plainly: HiBiT-Degradation, RET wild-type degradation assay (Nano-Glo HiBiT Lytic), 293T.144 cells. Format: cell-based. The following applies: RET wild-type; for DC50 / Emax: 6.0 hours; for DC50: read-out: HiBiT-Degradation 293T.144 RET (658-1114) 6.0 hours (DC50); for Emax: read-out: HiBiT-Degradation 293T.144 RET (658-1114) 6.0 hours (Emax). The method in brief: as §1

Where [3] appears, read: % remaining protein, read-out: 293T.165 RET(KD: 658-1114 G810R) 6.0 hours (Emax).
The mark [4] stands for this setting: half-maximal degradation concentration, read-out: 293T.165 RET(KD: 658-1114 G810R) 6.0 hours (DC50).
The mark [5] stands for this setting: RET G810R, read-out: HiBiT-Degradation 293T.165 RET(KD: 658-1114 G810R) 6.0 hours (DC50).
The mark [6] stands for this setting: RET G810R, read-out: HiBiT-Degradation 293T.165 RET(KD: 658-1114 G810R) 6.0 hours (Emax).

Numbering of substitutions follows the chain as printed. Where two headings read alike, the source gives them in different places. Where only a bound is given, the exact number is not on record here.

Turning to `CC(C)NC(=O)C1(C)CCN(c2ccc(-c3cc(-c4cnn(CCCCCCN5CCC(c6ccc7c(N8CCC(=O)NC8=O)nn(C)c7c6)CC5)c4)cn4ncc(C#N)c34)cn2)CC1` [Compound 82, 1-[5-[3-cyano-6-[1-[6-[4-[3-(2,4-dioxohexahydropyrimidin-1-yl)-1-methyl-indazol-6-yl]-1-piperidyl]hexyl]pyrazol-4-yl]pyrazolo[1,5-a]pyridin-4-yl]-2-pyridyl]-N-isopropyl-4-methyl-piperidine-4-carboxamide], the Emax in experiment [1] (setting [3]), in experiment [1] (setting [6]) and in experiment [2] was under 30% throughout. Moreover, the DC50 in experiment [1] (setting [4]) was under 100 nM; in experiment [1] (setting [5]), under 100 nM; in experiment [2], under 50 nM. Besides, the “HiBiT-Degradation 293T.165 RET(KD: 658-1114 G810R) 6.0 hours (IP) [nM]” value in experiment [1] (RET G810R) is given as “++++ (< 50 nM = ++++)”. Moreover, in experiment [2], the “HiBiT-Degradation 293T.144 RET (658-1114) 6.0 hours (IP) [nM]” value (shortened to “HiBiT-Degradation 293T.144 RET”) is given as “++++ (< 50 nM = ++++)”.
Turning to `CN(Cc1ccc(-c2cn3ncc(C#N)c3c(-c3ccc(N4CCN(Cc5ccccn5)CC4)nc3)n2)cc1)C(=O)CN1CCC(c2ccc(NC3CCC(=O)NC3=O)cc2)CC1` (centres unmarked) [Compound 83, N-[[4-[3-cyano-4-[6-[4-(2-pyridylmethyl)piperazin-1-yl]-3-pyridyl]pyrazolo[1,5-a]pyrazin-6-yl]phenyl]methyl]-2-[4-[4-[(2,6-dioxo-3-piperidyl)amino]phenyl]-1-piperidyl]-N-methyl-acetamide], the Emax is under 50% in experiment [1] (setting [3]), under 50% in experiment [1] (setting [6]) and under 30% in experiment [2]. Besides, the figures for the DC50 in experiment [1] (setting [4]), in experiment [1] (setting [5]) and in experiment [2] were under 100 nM, under 100 nM and under 50 nM, respectively. Moreover, the “HiBiT-Degradation 293T.165 RET(KD: 658-1114 G810R) 6.0 hours (IP) [nM]” value in experiment [1] (RET G810R) was “++++ (< 50 nM = ++++)”. Besides, the “HiBiT-Degradation 293T.144 RET” value in experiment [2] is on record as “++++ (< 50 nM = ++++)”.
For the molecule `CCC1(C(=O)NC(C)C)CCN(c2ccc(-c3nc(-c4cnn(CC5CCN(C(=O)CC6(O)CCN(c7ccc(NC8CCC(=O)NC8=O)cc7F)CC6)CC5)c4)cn4ncc(C#N)c34)cn2)CC1` (centres unmarked) [Compound 84, 1-[5-[3-cyano-6-[1-[[1-[2-[1-[4-[(2,6-dioxo-3-piperidyl)amino]-2-fluoro-phenyl]-4-hydroxy-4-piperidyl]acetyl]-4-piperidyl]methyl]pyrazol-4-yl]pyrazolo[1,5-a]pyrazin-4-yl]-2-pyridyl]-4-ethyl-N-isopropyl-piperidine-4-carboxamide], the Emax in experiment [1] (setting [3]), in experiment [1] (setting [6]) and in experiment [2] was under 30% in each case. Besides, the DC50 was under 100 nM in experiment [1] (setting [4]), under 100 nM in experiment [1] (setting [5]) and under 50 nM in experiment [2]. The “HiBiT-Degradation 293T.165 RET(KD: 658-1114 G810R) 6.0 hours (IP) [nM]” value in experiment [1] (RET G810R) is listed as “++++ (< 50 nM = ++++)”. Moreover, the “HiBiT-Degradation 293T.144 RET” value in experiment [2] was “++++ (< 50 nM = ++++)”.
For `CCC1(C(=O)NC(C)C)CCN(c2ccc(-c3nc(-c4cnn(C5CCN(C(=O)CC6(O)CCN(c7ccc(NC8CCC(=O)NC8=O)cc7)CC6)CC5)c4)cn4ncc(C#N)c34)cn2)CC1` (centres unmarked) [Compound 85, 1-[5-[3-cyano-6-[1-[1-[2-[1-[4-[(2,6-dioxo-3-piperidyl)amino]phenyl]-4-hydroxy-4-piperidyl]acetyl]-4-piperidyl]pyrazol-4-yl]pyrazolo[1,5-a]pyrazin-4-yl]-2-pyridyl]-4-ethyl-N-isopropyl-piperidine-4-carboxamide], the results for the Emax in experiment [1] (setting [3]), in experiment [1] (setting [6]) and in experiment [2] were under 50%, under 50% and under 30%, respectively. The DC50 in experiment [1] (setting [4]) is under 100 nM; in experiment [1] (setting [5]), under 100 nM; in experiment [2], under 50 nM. Also, in experiment [1] (RET G810R), the “HiBiT-Degradation 293T.165 RET(KD: 658-1114 G810R) 6.0 hours (IP) [nM]” value is reported as “++++ (< 50 nM = ++++)”. The “HiBiT-Degradation 293T.144 RET” value in experiment [2] is “++++ (< 50 nM = ++++)”.

As usually defined, the Emax is the greatest response seen or fitted, relative to the assay's reference. For orientation: DC50 means the concentration at which degradation of the target reaches its halfway point.

These data come from US12661410B2, “Compounds for targeted degradation of RET” (C4 Therapeutics, Inc., priority 2020, dated 2026).
